In patent US20030229030A1, “Method of treating interleukin-6-mediated inflammatory diseases” (priority 2002, published 2003):
“And” between values parts separate entries of the source, which are not always exact repeats. Equal entries are not always repeated. Marks after values point to notes of the source that are not given here. Ends that are not written are not given here.

Columns and labels:
[1] = test system: IL-6 secretion from hCBMC; test: IL-6 secretion from human cord blood-derived mast cells (hCBMC), ELISA; type: cell-based; conditions: for secretion of IL-6 (FIG. 3): n=4
Protocol: (§1) Human cord blood-derived mast cells (HCBMC) were grown from CD34+ progenitor mononuclear umbilical cells isolated from umbilical cord blood by positive selection of AC133 (CD 133+/CD34+high) cells by magnetic cell sorting (Miltenyi Biotec, Auburn, Calif.). CD34+ cells were then cultured in Isocove's Modified Dulbecco's Medium (1MDM) containing 100 ng/ml Stem Cell Factor (from Amgen, Thousand Oaks, Calif.) plus test components in 10% FBS at 37° C. in 5% CO2 balanced air. By 10 weeks, 95% of the cells in culture could be identified as mast cells by immuno-staining for tryptase. hCBMC were washed three times in PBS and resuspended in culture medium (1×10^5 cells/200 ul sample). Test substances, e.g., IL-1 were added and cells were incubated at 37° C. in 5% CO2 for six hours for dose-response experiments or for the indicated times in time-course experiments. IL-6 and tryptase were measured in cell-free supernatant fluids by ELISA (R&D Systems, Minneapolis, Minn.) and fluoroenzymeimmunoassay (Pharmacia, Uppsala, Sweden), respectively.
(§2) Dose-response of IL-6 and tryptase secretion from hCBMC and HMC-1 cells were tested after stimulation for six hours with indicated concentrations of IL-1 or other stimuli. Time-course of IL.6 production induced by 50 ng/ml of IL-1 a from CBMC or by 10 ng/ml IL-1 from HMC-1 cells could be tested.
The data in general represent means +/− standard error of the mean from 3 to 4 experiments done in duplicate for each cell type used.

[2] = test system: tryptase secretion from hCBMC; test: Tryptase secretion from hCBMC mast cell granules, fluoroenzymeimmunoassay; type: cell-based, human; conditions: stimulus alone: CRH 5 × 10^−5M, IL-1 50 ng/ml, anti-IgE 10 μg/ml
Protocol: as §1
Dose-response of IL-6 and tryptase secretion from hCBMC and HMC-1 cells were tested after stimulation for six hours with indicated concentrations of IL-1 or other stimuli. Time-course of IL.6 production induced by 50 ng/ml of IL-1 a from CBMC or by 10 ng/ml IL-1 from HMC-1 cells could be tested. […]

[3] = test system: IL-6 production from rat peritoneal macrophages; test: IL-6 production from LPS-stimulated rat peritoneal macrophages; type: cell-based; conditions: rat macrophages stimulated by LPS; quercetin dihydrate 100 μM, 10 mins prior to stimulus, 6 hrs
Text: (§3) In this experiment, the effect of quercetin on the production of IL-6 and TNF-a from rat peritoneal macrophages and human mast cells that are involved in inflammation was studied. [table]

[4] = test system: TNF-α production from rat peritoneal macrophages; test: TNF-α production from LPS-stimulated rat peritoneal macrophages; type: cell-based; conditions: rat macrophages stimulated by LPS; quercetin dihydrate 100 μM, 10 mins prior to stimulus, 6 hrs
Text: as §3

[5] = test system: TNF-α production from human mast cells (hCBMC); test: TNF-α production from hCBMC stimulated by IgE and anti-IgE; type: cell-based; conditions: quercetin dihydrate 100 μM, 10 mins prior to stimulus, 6 hrs
Text: as §3

[6] = test system: IL-6 secretion from human mast cells; test: IL-6 production and secretion from human mast cells, quercetin alone or with IL-1; type: cell-based
Protocol: as §1
In this experiment, the effects of quercetin, alone or together with IL-1, on the production and secretion of IL-6 from human mast cells was studied.

[7] = test system: IL-6 secretion from HMC-1 cells; test: IL-6 secretion from HMC-1 human leukemic mast cells; type: cell-based; conditions: quercetin 10 μM, IL-10 2 ng/ml
Protocol: Human leukemic mast cells (HMC-1) was obtained from Dr. Butterfield (Mayo Clinic, Rochester, Minn.), and cultured in IMDM medium supplemented with 10% FBS, PBS and 2 μM alpha.thioglycerol. HCBMC or HMC-I cells 2×10^5/200 μl sample were stimulated in full culture medium as indicated.
as §2
The effect of IL-10 on HMC-1 leukemic cells producing IL-6, especially cells stimulated by IL-1 that induces selective release of IL-6, was studied alone or together with a flavonoid compound.

[8] = hCBMC + anti-IgE, azelastine 1 μM, quercetin 10 μM
[9] = hCBMC, substance alone: anti-IgE, azelastine 1 μM, quercetin 10 μM
[10] = IL-1 50 ng/ml + quercetin 10 μM
[11] = IL-1 50 ng/ml + quercetin 100 μM
[12] = HMC-1, substance alone: IL-1 50 ng/ml

## O=c1c(O)c(-c2ccc(O)cc2O)oc2cc(O)cc(O)c12 [Morin, reference compound]
[1]; hCBMC + anti-IgE, morin (100-0.01 μM listed)
  secretion of IL-6 (FIG. 3): only a small effect

## CN1CCCC(n2nc(Cc3ccc(Cl)cc3)c3ccccc3c2=O)CC1 (centres unmarked) [Azelastine, reference compound]
[1]; azelastine at concentrations below 1 μM
  inhibition of IL-6 secretion from hCBMC: ineffective
[1]; [8]
  IL-6 (pg/ml/5 × 105cells): 30.6 pg/ml/5 × 105cells
[1]; hCBMC + anti-IgE, dose-dependent
  inhibition of IL-6 secretion from hCBMC (FIG. 4): potent inhibitor
[1]; hCBMC, azelastine 60 μM
  IL-6 secretion (FIG. 4): below control levels
[1]; [9]
  IL-6 (pg/ml/5 × 105cells): 11.9 pg/ml/5 × 105cells

## CRH: corticotropin-releasing hormone (SEEPPISLDLTFHLLREVLEMARAEQLAQQAHSNRKLMEII; ends and bridges not checked; UniProt P06850 154-194, looked up)
[1]; hCBMC, stimulus alone: CRH 5 × 10^−5M, IL-1 50 ng/ml, anti-IgE 10 μg/ml
  IL-6 (pg/ml/5 × 10^6 cells): 33.3 +/− 3.5 pg/ml/5 × 10^6 cells
[2]
  Tryptase % total: 4.20 % total and 4.26 % total

## O=c1c(O)c(-c2ccc(O)c(O)c2)oc2cc(O)cc(O)c12 [Quercetin, quercetin]
[3]
  Inhibition (% of total) IL-6: 96.3 % of total
[4]
  Inhibition (% of total) TNF-α: 88.3 % of total
[1]; [8]
  IL-6 (pg/ml/5 × 105cells): 21.4 pg/ml/5 × 105cells
  Inhibition (% total): 32.9 % total
[1]; hCBMC + anti-IgE, three lower concentrations of quercetin (1, 0.1, 0.01 μM)
  secretion of IL-6 (FIG. 3): only slightly reduced
[1]; hCBMC + anti-IgE, two highest concentrations of quercetin (100, 10 μM)
  secretion of IL-6 (FIG. 3): greatly reduced
[1]; hCBMC stimulated by IgE and anti-IgE, quercetin dihydrate 100 μM, 10 mins prior to stimulus, 6 hrs
  Inhibition (% of total) IL-6: 95.8 % of total
[1]; hCBMC, 0.1 mM quercetin 30 mins, then anti-IgE 6 hrs, replicated 6 times
  secretion of IL-6 from mast cells stimulated by anti-IgE: profoundly inhibited
[1]; hCBMC, quercetin 0.1 mM alone, no anti-IgE
  IL-6 (pg/10^6 cells): 10.8 pg/10^6 cells
[1]; hCBMC, quercetin 0.1 mM for 10 mins prior to addition of anti-IgE
  IL-6 (pg/10^6 cells): 50.5 pg/10^6 cells
[1]; [9]
  IL-6 (pg/ml/5 × 105cells): 9.8 pg/ml/5 × 105cells
[5]
  Inhibition (% of total) TNF-α: 78.3 % of total
[6]; [10]
  IL-6 (pg/ml/5 × 10^5 cells): 300.1 pg/ml/5 × 10^5 cells
  Inhibition (% total): 32.7* % total
[6]; [11]
  IL-6 (pg/ml/5 × 10^5 cells): 150.4 pg/ml/5 × 10^5 cells
  Inhibition (% total): 82.0* % total
[6]; quercetin 10 μM alone
  IL-6 (pg/ml/5 × 10^5 cells): 74.9 pg/ml/5 × 10^5 cells
[6]; quercetin 100 μM alone
  IL-6 (pg/ml/5 × 10^5 cells): 56.1 pg/ml/5 × 10^5 cells
[7]; HMC-1 + IL-1 (50 ng/ml)
  IL-6 (pg/ml/10^5 cells): 299.0 pg/ml/10^5 cells
  Inhibition (% total): 5.37 % total
[7]; [12]
  IL-6 (pg/ml/10^5 cells): 79.8 pg/ml/10^5 cells

B1: IL-10: interleukin-10 (protein, UniProt P22301 19-178, looked up)
Interleukin-10: SPGQGTQSENSCTHFPGNLPNMLRDLRDAFSRVKTFFQMKDQLDNLLLKESLLEDFKGYLGCQALSEMIQFYLEEVMPQAENQDPDIKAHVNSLGENLKTLRLRLRRCHRFLPCENKSKAVEQVKNAFNKLQEKGIYKAMSEFDIFINYIEAYMTMKIRN
[7]; HMC-1 + IL-1 (50 ng/ml)
  IL-6 (pg/ml/10^5 cells): 275.9 pg/ml/10^5 cells
  Inhibition (% total): 31.32 % total
[7]; [12]
  IL-6 (pg/ml/10^5 cells): 85.6 pg/ml/10^5 cells
